In ChEMBL document CHEMBL1151107, “Inhibition of dopamine beta-hydroxylase by goitrin, a natural antithyroid compound” (J Nat Prod, 1988):

How the values were obtained:
Rattus norvegicus [1] = assay: Inhibition of dopamine beta-hydroxylase in Sprague-Dawley rat assessed as decrease in brain norepinephrine level at 50 mg/kg, ip after 2.5 hrs by liquid chromatography (RVb=0.216+/-0.025); assay type: functional; settings: route intraperitoneal
[2] = biological target: T1, Dopamine beta-hydroxylase (Bos taurus) (UniProt P15101); assay: Inhibition of bovine adrenal dopamine beta-hydroxylase at 0.1 mM
T1 sequence (whole entry): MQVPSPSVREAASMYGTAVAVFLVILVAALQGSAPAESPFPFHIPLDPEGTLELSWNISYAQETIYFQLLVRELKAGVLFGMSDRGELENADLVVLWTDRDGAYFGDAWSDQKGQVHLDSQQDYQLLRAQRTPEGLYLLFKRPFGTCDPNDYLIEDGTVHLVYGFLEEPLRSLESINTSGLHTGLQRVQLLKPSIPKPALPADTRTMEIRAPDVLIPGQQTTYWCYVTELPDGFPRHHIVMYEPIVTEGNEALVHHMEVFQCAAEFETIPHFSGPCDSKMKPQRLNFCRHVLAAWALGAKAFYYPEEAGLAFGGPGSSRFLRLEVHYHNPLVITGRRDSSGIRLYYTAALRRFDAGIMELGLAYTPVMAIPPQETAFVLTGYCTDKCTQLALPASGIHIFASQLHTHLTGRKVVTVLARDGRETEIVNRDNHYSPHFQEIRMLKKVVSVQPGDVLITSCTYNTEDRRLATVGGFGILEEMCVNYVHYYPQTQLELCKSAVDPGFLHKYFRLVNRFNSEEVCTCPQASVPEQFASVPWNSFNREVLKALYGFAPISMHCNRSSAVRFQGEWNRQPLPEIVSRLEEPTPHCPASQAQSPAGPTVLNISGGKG

[3] = Drug level in Sprague-Dawley rat brain at 50 mg/kg, ip after 4 hrs; assay type: ADME, organism-based; design: dose 50 mg/kg, route intraperitoneal; settings: read-out: Drug uptake
Rattus norvegicus [4] = assay: Inhibition of dopamine beta-hydroxylase in Sprague-Dawley rat assessed as decrease in brain norepinephrine level at 50 mg/kg, ip after 6 hrs by liquid chromatography (RVb=0.206+/-0.022); assay type: functional; settings: route intraperitoneal
[5] = biological target: T1, Dopamine beta-hydroxylase (Bos taurus); assay: Inhibition of bovine adrenal dopamine beta-hydroxylase at 0.2 mM
Rattus norvegicus [6] = assay: Inhibition of dopamine beta-hydroxylase in Sprague-Dawley rat assessed as increase in cardiac dopamine level at 50 mg/kg, ip after 4 hrs by liquid chromatography (RVb=0.023+/-0.005); assay type: functional; settings: route intraperitoneal
[7] = biological target: T1, Dopamine beta-hydroxylase (Bos taurus); assay: Inhibition of bovine adrenal dopamine beta-hydroxylase assessed as norepinephrine formation per mg of protein at 0.1 mM after 45 mins
Rattus norvegicus [8] = assay: Inhibition of dopamine beta-hydroxylase in Sprague-Dawley rat assessed as decrease in brain norepinephrine level at 50 mg/kg, ip after 1 hr by liquid chromatography (RVb=0.222+/-0.069); assay type: functional; settings: route intraperitoneal
[9] = Drug level in Sprague-Dawley rat heart at 50 mg/kg, ip after 4 hrs; assay type: ADME, organism-based; design: dose 50 mg/kg, route intraperitoneal; settings: read-out: Drug uptake
[10] = biological target: T1, Dopamine beta-hydroxylase (Bos taurus); assay: Inhibition of bovine adrenal dopamine beta-hydroxylase assessed as norepinephrine formation per mg of protein at 0.2 mM after 45 mins
Rattus norvegicus [11] = assay: Inhibition of dopamine beta-hydroxylase in Sprague-Dawley rat assessed as increase in adrenal dopamine level at 50 mg/kg, ip after 4 hrs by liquid chromatography (RVb=5.9+/-1.0); assay type: functional; settings: route intraperitoneal

| SMILES | Activity (Rattus norvegicus [1]) [µg/g] | inhibition [2] [%] | concentration at 4 h [3] [ng/g] | Activity (Rattus norvegicus [4]) [µg/g] | inhibition [5] [%] | Activity (Rattus norvegicus [6]) [µg/g] | Activity [7] [nmol] | Activity (Rattus norvegicus [8]) [µg/g] | concentration at 4 h [9] [ng/g] | Activity [10] [nmol] | Activity (Rattus norvegicus [11]) [µg/g] |
| --- | --- | --- | --- | --- | --- | --- | --- | --- | --- | --- | --- |
| C=CC1CNC(=S)O1 (stereo unspecified) | 0.158 | 55 | 21000 | 0.092 | 78 | 0.071 | 77 | 0.249 | 22300 | 49 | 10 |
| C=C[C@@H]1CNC(=S)O1 |  |  |  |  |  |  | 62 |  |  |  |  |
| Cn1ccnc1S [METHIMAZOLE] | 0.143 |  |  | 0.076 |  |  |  | 0.216 |  | 53 |  |
